One assay relates to MCF7. In words: cells. As to conditions: Homo sapiens, MCF7, 72 h. Type of assay: functional, cell-based.
The subject of the next assay is A549. Briefly: cells. As to conditions: Homo sapiens, A549, 72 h. The format is functional, cell-based.
A short description of assay [1]: Antiproliferative activity against human BT474 cells after 72 hrs by MTT assay. Type of assay: functional, cell-based. To be noted: BT-474, 72 h. (Formazan colour is commonly taken as a measure of viable cells.)
The next assay concerns SK-BR-3. In words: cells. To be noted: Homo sapiens, SK-BR-3, 72 h. Type of assay: functional, cell-based.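 Also: antiproliferative effect determined with an MTT read-out.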
A further assay has as its system MDA-MB-231. Briefly: cells. The format is functional, cell-based. To be noted: Homo sapiens, MDA-MB-231, 72 h.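 Also: antiproliferative effect read out with the MTT assay.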
Assay [2] addresses T1, Epidermal growth factor receptor (Homo sapiens, UniProt P00533). To be noted: at 1 µM.
In assay [3] the target is T1, Epidermal growth factor receptor.
Description: Inhibition of cytoplasmic GST-tagged human recombinant EGFR expressed in baculovirus system by z-lyte assay
Assay [4] addresses Epidermal growth factor receptor (Homo sapiens, UniProt P00533, L858R).
Description: Inhibition of cytoplasmic GST-tagged human recombinant EGFR L858R mutant expressed in baculovirus system by z-lyte assay
Assay [5] deals with Epidermal growth factor receptor (Homo sapiens, UniProt P00533, L858R/T790M). In words: Inhibition of cytoplasmic GST-tagged human recombinant EGFR L858R/T790M double mutant (668-1210 residues) expressed in baculovirus system by z-lyte assay.
For assay [6], the target named is Receptor tyrosine-protein kinase erbB-2 (Homo sapiens, UniProt P04626). In words: Inhibition of cytoplasmic His-tagged human ErbB2 expressed in baculovirus system by z-lyte assay.
The target of assay [7] is Receptor tyrosine-protein kinase erbB-4 (Homo sapiens, UniProt Q15303). In words: Inhibition of cytoplasmic GST-tagged human ErbB4 expressed in baculovirus system by z-lyte assay.

Results on 18 compounds are retold here after ChEMBL document CHEMBL3826970, “Design, synthesis, anti-tumor activity, and molecular modeling of quinazoline and pyrido[2,3-d]pyrimidine derivatives targeting epidermal growth factor receptor” (Eur J Med Chem, 2016).

As a reminder, the IC50 is the concentration that gives 50% inhibition. What is called inhibition is the drop in the measured response relative to a control, in per cent.

Chain of Receptor tyrosine-protein kinase erbB-4 (Q15303 whole entry): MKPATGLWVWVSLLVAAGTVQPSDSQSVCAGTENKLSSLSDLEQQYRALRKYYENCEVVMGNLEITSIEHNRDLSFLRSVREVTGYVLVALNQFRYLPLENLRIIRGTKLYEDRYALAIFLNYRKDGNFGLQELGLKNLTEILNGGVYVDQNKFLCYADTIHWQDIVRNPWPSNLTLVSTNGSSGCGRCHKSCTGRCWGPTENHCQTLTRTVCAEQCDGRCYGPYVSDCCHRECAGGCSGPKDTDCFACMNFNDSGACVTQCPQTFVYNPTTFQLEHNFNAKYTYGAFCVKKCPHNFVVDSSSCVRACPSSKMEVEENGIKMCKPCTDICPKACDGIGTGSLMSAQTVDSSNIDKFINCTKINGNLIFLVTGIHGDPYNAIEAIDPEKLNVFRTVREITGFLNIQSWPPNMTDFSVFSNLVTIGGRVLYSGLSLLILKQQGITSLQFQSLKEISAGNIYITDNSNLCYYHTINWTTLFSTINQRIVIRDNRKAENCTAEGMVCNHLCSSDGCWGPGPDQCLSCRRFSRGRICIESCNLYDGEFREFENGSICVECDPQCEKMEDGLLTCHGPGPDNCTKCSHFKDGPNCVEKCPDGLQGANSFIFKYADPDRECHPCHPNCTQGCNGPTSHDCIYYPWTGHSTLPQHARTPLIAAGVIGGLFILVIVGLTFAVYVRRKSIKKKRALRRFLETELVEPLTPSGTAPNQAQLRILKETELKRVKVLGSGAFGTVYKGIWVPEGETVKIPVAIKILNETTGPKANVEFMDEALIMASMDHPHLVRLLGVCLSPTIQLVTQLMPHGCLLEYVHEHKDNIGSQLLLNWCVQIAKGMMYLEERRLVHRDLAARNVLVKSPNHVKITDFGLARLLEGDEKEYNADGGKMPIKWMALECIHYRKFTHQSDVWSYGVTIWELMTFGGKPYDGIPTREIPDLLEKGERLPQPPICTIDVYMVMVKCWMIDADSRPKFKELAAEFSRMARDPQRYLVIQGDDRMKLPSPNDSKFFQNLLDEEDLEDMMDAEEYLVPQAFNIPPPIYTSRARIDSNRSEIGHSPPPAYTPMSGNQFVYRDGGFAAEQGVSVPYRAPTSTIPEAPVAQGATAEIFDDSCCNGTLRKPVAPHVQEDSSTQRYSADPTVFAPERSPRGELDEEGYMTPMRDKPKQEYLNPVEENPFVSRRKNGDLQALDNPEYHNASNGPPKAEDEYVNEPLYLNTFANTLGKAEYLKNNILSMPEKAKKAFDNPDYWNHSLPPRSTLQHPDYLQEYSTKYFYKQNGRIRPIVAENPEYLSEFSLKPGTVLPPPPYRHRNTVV
Chain of Receptor tyrosine-protein kinase erbB-2 (P04626 whole entry): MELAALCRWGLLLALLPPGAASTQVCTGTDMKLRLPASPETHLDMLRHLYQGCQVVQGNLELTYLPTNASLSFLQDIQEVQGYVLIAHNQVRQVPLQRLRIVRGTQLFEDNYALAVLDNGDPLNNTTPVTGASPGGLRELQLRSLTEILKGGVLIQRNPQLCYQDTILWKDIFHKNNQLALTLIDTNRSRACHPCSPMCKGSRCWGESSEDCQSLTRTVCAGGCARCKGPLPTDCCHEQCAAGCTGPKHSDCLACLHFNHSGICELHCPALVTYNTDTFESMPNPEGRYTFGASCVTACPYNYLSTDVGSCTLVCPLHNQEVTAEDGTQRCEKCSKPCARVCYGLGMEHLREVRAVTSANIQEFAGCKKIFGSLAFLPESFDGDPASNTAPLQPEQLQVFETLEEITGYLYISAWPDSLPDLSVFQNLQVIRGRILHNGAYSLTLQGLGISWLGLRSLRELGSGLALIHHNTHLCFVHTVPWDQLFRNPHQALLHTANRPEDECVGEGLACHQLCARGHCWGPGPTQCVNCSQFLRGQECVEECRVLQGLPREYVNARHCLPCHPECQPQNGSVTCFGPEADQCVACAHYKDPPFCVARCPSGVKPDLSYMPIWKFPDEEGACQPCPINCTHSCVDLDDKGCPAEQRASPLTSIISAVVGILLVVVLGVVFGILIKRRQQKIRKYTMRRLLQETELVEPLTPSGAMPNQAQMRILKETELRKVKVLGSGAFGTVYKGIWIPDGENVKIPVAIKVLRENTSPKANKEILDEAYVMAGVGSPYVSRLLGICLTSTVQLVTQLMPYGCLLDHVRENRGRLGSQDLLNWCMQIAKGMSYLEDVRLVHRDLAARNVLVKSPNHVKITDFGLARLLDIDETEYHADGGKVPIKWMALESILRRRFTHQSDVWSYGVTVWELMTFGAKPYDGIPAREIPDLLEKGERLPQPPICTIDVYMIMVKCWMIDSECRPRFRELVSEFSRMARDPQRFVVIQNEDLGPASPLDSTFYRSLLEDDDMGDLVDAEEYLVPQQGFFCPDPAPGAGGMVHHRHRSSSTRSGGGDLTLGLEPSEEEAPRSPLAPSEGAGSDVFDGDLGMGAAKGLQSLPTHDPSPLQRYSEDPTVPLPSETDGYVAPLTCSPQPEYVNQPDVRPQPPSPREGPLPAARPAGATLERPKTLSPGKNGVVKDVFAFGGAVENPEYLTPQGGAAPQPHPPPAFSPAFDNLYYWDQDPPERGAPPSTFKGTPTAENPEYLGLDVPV
Chain of Epidermal growth factor receptor (Homo sapiens, UniProt P00533, L858R/T790M) (P00533 25-1210 T790M/L858R limits assumed): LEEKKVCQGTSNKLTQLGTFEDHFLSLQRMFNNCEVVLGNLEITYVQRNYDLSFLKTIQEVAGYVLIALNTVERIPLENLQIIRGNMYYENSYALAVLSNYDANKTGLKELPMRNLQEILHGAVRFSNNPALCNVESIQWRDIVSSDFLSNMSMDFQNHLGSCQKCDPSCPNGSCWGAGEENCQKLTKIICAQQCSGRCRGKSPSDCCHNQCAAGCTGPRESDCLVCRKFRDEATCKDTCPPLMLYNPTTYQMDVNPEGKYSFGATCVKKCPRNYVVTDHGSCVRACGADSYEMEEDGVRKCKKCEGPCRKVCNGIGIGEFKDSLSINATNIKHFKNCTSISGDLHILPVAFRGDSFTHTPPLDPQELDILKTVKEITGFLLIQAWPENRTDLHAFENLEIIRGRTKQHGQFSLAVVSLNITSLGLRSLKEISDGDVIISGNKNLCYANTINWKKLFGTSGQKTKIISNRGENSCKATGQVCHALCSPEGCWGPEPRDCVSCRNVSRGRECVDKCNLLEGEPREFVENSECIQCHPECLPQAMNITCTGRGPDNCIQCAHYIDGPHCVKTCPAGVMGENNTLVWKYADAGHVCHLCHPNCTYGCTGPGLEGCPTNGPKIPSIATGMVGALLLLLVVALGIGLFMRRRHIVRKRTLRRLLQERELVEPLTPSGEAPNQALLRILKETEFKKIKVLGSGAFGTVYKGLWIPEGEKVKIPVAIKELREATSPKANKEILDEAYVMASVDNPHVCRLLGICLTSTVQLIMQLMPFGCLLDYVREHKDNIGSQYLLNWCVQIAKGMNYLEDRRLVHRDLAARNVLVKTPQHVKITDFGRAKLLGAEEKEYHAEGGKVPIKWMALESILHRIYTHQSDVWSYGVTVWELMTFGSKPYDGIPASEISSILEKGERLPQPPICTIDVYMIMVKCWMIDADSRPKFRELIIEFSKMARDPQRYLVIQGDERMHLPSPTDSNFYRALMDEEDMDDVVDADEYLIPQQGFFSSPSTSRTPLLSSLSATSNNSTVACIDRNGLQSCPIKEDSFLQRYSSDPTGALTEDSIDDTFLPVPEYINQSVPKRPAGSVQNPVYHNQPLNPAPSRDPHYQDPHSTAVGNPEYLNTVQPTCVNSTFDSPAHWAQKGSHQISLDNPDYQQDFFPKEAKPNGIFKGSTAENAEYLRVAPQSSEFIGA
T1 sequence (P00533 whole entry): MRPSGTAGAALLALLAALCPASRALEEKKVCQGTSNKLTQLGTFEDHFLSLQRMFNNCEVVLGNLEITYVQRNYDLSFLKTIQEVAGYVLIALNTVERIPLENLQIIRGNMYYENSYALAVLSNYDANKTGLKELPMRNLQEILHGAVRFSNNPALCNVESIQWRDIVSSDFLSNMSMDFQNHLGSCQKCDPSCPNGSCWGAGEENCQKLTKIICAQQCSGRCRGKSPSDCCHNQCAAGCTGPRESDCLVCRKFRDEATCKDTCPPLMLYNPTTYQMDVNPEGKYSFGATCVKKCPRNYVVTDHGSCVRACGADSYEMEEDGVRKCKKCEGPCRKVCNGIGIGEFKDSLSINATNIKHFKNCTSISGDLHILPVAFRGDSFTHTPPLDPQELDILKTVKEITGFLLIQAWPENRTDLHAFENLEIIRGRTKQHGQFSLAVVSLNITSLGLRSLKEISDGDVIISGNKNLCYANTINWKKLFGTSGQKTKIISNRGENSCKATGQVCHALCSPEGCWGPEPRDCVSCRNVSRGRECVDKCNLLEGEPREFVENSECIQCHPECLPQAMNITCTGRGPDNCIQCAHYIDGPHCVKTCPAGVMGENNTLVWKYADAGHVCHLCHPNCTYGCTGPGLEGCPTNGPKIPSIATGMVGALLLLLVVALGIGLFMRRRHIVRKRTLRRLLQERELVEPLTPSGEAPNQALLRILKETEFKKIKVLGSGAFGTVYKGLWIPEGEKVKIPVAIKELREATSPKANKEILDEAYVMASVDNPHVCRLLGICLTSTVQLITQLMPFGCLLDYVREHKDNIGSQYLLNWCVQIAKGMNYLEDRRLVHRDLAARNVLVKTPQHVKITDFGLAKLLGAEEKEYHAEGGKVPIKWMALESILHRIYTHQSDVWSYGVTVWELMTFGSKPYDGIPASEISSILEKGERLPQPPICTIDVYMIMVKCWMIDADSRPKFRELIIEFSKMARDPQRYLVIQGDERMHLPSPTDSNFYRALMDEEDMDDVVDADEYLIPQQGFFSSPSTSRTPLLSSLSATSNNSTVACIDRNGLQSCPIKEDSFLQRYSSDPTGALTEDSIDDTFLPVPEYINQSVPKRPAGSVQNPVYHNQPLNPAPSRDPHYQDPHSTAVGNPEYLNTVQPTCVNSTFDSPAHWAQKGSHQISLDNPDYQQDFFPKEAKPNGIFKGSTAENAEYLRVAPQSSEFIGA
Description for A549: Antiproliferative activity against human A549 cells after 72 hrs by MTT assay
Description for SK-BR-3: Antiproliferative activity against human SK-BR-3 cells after 72 hrs by MTT assay

Consider `CC(Nc1ncnc2ccc(-c3cnn(C4CCNCC4)c3)cc12)c1c(Cl)ccc(F)c1Cl` (stereo not drawn), for which the IC50 in the assay on MCF7 came to 2.65 µM; in the assay on A549, 7 µM; in [1], 8.13 µM; in the assay on SK-BR-3, 4.39 µM; in the assay on MDA-MB-231, 12.6 µM. Moreover, in assay [2], the inhibition was 61%.

`CC(Oc1ncnc2ccc(-c3cnn(C)c3)cc12)c1c(Cl)ccc(F)c1Cl` (stereo not drawn): the half-inhibitory concentration (IC50) was determined as 22.6 µM with MCF7; 28.8 µM with A549; 45.6 µM in assay [1]; 27.2 µM with SK-BR-3; 30 µM with MDA-MB-231. In addition, the inhibition in assay [2] is 11%.

In the case of `CC(Oc1nc(N)nc2ccc(-c3cnn(C4CCNCC4)c3)cc12)c1c(Cl)ccc(F)c1Cl` (stereo not drawn), the 50% inhibitory concentration (IC50) was determined as 1.24 µM in the assay on MCF7; 9.49 µM in the assay on A549; 3 µM in assay [1]; 7.12 µM with SK-BR-3; 7 µM in the assay on MDA-MB-231. In assay [2], the inhibition was found to be 7%.

As for `CC(Nc1ncnc2ncc(-c3cnn(C)c3)cc12)c1c(Cl)ccc(F)c1Cl` (stereo not drawn), the IC50 (in the assay on MCF7; in the assay on A549; in [1]; with SK-BR-3; in the assay with MDA-MB-231) was greater than 100 µM in each case. The inhibition in [2] is 9%.

In the case of `Cn1cc(-c2ccc3ncnc(Nc4ccc5ncccc5c4)c3c2)cn1`, the IC50 with MCF7 amounted to 0.49 µM; in the assay with A549 it was 1.38 µM; in assay [1] it was 10.9 µM; with SK-BR-3 it was 0.064 µM; in the assay with MDA-MB-231, 26.3 µM; in assay [3], 0.0441 µM. In addition, the IC50 in assay [4] was 0.108 µM; in assay [5] it was greater than 1 µM; in assay [6], 0.874 µM; in assay [7], 0.93 µM. Besides, the inhibition in assay [2] turned out to be 101%.

Take `Cn1cc(-c2cnc3ncnc(NCc4cccc([N+](=O)[O-])c4)c3c2)cn1`: the IC50 (in the assay on MCF7; with A549; in assay [1]; with SK-BR-3; in the assay on MDA-MB-231) was greater than 100 µM each time. The inhibition in assay [2] was determined as 30%.

Regarding `C#Cc1cccc(Nc2ncnc3ccc(-c4cnn(C)c4)cc23)c1`, the IC50 worked out at 11.4 µM with MCF7; 9.86 µM in the assay with A549; 5.68 µM in assay [1]; 5.87 µM with SK-BR-3; 16.9 µM in the assay with MDA-MB-231; 0.00358 µM in assay [3]. Moreover, the IC50 was 0.00425 µM in assay [4], greater than 1 µM in [5], 0.59 µM in [6] and 0.782 µM in [7]. Besides, in [2], the inhibition is 102%.

Take `COc1cccc(CNc2ncnc3ccc(-c4cnn(C)c4)cc23)c1`: the IC50 in the assay with MCF7 was determined as 40 µM; in the assay on A549 it was 48.9 µM; in assay [1], 30.4 µM; in the assay on SK-BR-3, 36 µM; with MDA-MB-231, 28.5 µM. Also, the inhibition in assay [2] amounted to 67%.

As for `CC(Oc1ncnc2ccc(-c3cnn(C4CCNCC4)c3)cc12)c1c(Cl)ccc(F)c1Cl` (stereo not drawn), the half-maximal inhibitory concentration (IC50) in the assay with MCF7 was 2.67 µM; with A549 it was 6.75 µM; in assay [1], 4.14 µM; with SK-BR-3 it was 2.5 µM; in the assay with MDA-MB-231 it was 6.77 µM. Moreover, in assay [2], the inhibition was 52%.

In the case of `CC(Nc1ncnc2ncc(-c3cnn(C)c3)cc12)c1ccncc1` (stereo not drawn), the IC50 (in the assay with MCF7; in the assay with A549; in [1]; with SK-BR-3; in the assay with MDA-MB-231) was greater than 100 µM in each case. In addition, the inhibition in assay [2] stood at 0%.

Turning to `COc1cccc(CNc2ncnc3ncc(-c4cnn(C)c4)cc23)c1`, the IC50 (with MCF7; with A549; in assay [1]; in the assay with SK-BR-3; in the assay on MDA-MB-231) was greater than 100 µM in each case. In addition, the inhibition in [2] stood at 18%.

As to `Fc1ccc(Nc2ncnc3ccc(-c4cnn(C5CCNCC5)c4)cc23)cc1Cl`, the half-inhibitory concentration (IC50) came to 31.3 µM in the assay with MCF7; 29.4 µM in the assay on A549; 15.2 µM in [1]; 3.74 µM with SK-BR-3; 28.4 µM in the assay on MDA-MB-231; 0.0319 µM in [3]. For the same compound, the IC50 in assay [4] was 0.0391 µM; in assay [5], greater than 1 µM; in assay [6], 1.2 µM; in assay [7] it was 1.6 µM. For the same compound, the inhibition in [2] came to 99%.

As for `CC(Nc1nc(N)nc2ccc(-c3cnn(C)c3)cc12)c1c(Cl)ccc(F)c1Cl` (stereo not drawn), the IC50 was 2.87 µM with MCF7; greater than 100 µM in the assay with A549; 7.12 µM in assay [1]; 7.14 µM with SK-BR-3; 7.96 µM in the assay on MDA-MB-231. Moreover, the inhibition in assay [2] was 12%.

Consider `Cn1cc(-c2ccc3ncnc(Nc4ccc(F)c(Cl)c4)c3c2)cn1`, for which the IC50 was 52.2 µM in the assay with MCF7; greater than 100 µM with A549; 5.26 µM in assay [1]; 3.1 µM in the assay with SK-BR-3; 62.6 µM in the assay with MDA-MB-231; 0.00297 µM in [3]. Also, the IC50 in assay [4] is 0.0035 µM; in [5] it was greater than 1 µM; in assay [6] it was 0.676 µM; in assay [7], 0.801 µM. Besides, the inhibition in assay [2] amounted to 101%.

For `c1cnc2ccc(Nc3ncnc4ccc(-c5cnn(C6CCNCC6)c5)cc34)cc2c1`, the half-maximal inhibitory concentration (IC50) came out at 61.9 µM in the assay with MCF7; 32 µM in the assay on A549; 12.8 µM in assay [1]; 2.66 µM in the assay with SK-BR-3; 30.3 µM with MDA-MB-231; 0.0282 µM in assay [3]. The IC50 in [4] is 0.035 µM; in assay [5], greater than 1 µM; in [6], 1.35 µM; in assay [7], 1.1 µM. Besides, in assay [2], the inhibition stood at 96%.

On to `Cn1cc(-c2ccc3ncnc(Oc4ccc5ncccc5c4)c3c2)cn1`, for which the half-maximal inhibitory concentration (IC50) with MCF7 worked out at 22 µM; in the assay on A549, 26.6 µM; in [1], 24.3 µM; in the assay on SK-BR-3, 14.4 µM; in the assay with MDA-MB-231, 16.5 µM. In addition, the inhibition in [2] is 43%.

With `CC(Nc1nc(N)nc2ccc(-c3cnn(C4CCNCC4)c3)cc12)c1c(Cl)ccc(F)c1Cl` (stereo not drawn), the IC50 with MCF7 amounted to 2.23 µM; in the assay on A549, 8.8 µM; in [1] it was 5.1 µM; with SK-BR-3, 1.58 µM; with MDA-MB-231, 4.48 µM. Also, in assay [2], the inhibition turned out to be 17%.

For `CC(Nc1ncnc2ncc(-c3cnn(C4CCNCC4)c3)cc12)c1c(Cl)ccc(F)c1Cl` (stereo not drawn), the half-inhibitory concentration (IC50) amounted to 1.63 µM in the assay with MCF7; 29.7 µM with A549; 13.5 µM in assay [1]; 17.7 µM with SK-BR-3; 7.11 µM in the assay with MDA-MB-231. The inhibition in assay [2] amounted to 17%.
